Test results as given in the supplement of paper PMC10307832.

Experiments:
Experiment in all cases: relative viability (nuclei count vs DMSO), 5 days (fraction); higher = more cells survive
Fedratinib + Tozasertib = compound: Cc1cnc(Nc2ccc(OCCN3CCCC3)cc2)nc1Nc1cccc(S(=O)(=O)NC(C)(C)C)c1 [Fedratinib] + Cc1cc(Nc2cc(N3CCN(C)CC3)nc(Sc3ccc(NC(=O)C4CC4)cc3)n2)n[nH]1 [Tozasertib] (partner 0.1 µM)
Procedure, shortened: (§1)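 Relative viability is defined as nuclei in treated wells over nuclei in vehicle wells. Duplicate plates were run and medians reported. Lung cancer cell lines in 1536-well plates were dosed by pin tool one day after seeding, with one drug or with a fixed anchor-drug dose plus five library-drug doses (not always all listed) in √10 steps, and nuclei were counted after 5 days.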

Fedratinib + Linsitinib = compound: Cc1cnc(Nc2ccc(OCCN3CCCC3)cc2)nc1Nc1cccc(S(=O)(=O)NC(C)(C)C)c1 [Fedratinib] + C[C@]1(O)C[C@@H](c2nc(-c3ccc4ccc(-c5ccccc5)nc4c3)c3c(N)nccn32)C1 [Linsitinib] (partner 1 µM)
Procedure, shortened: as §1

Fedratinib + Decitabine = compound: Cc1cnc(Nc2ccc(OCCN3CCCC3)cc2)nc1Nc1cccc(S(=O)(=O)NC(C)(C)C)c1 [Fedratinib] + Nc1ncn([C@H]2C[C@H](O)[C@@H](CO)O2)c(=O)n1 [Decitabine] (partner 2 µM)
Procedure, shortened: as §1

Fedratinib + Palbociclib = compound: Cc1cnc(Nc2ccc(OCCN3CCCC3)cc2)nc1Nc1cccc(S(=O)(=O)NC(C)(C)C)c1 [Fedratinib] + CC(=O)c1c(C)c2cnc(Nc3ccc(N4CCNCC4)cn3)nc2n(C2CCCC2)c1=O [Palbociclib] (partner 0.5 µM)
Procedure, shortened: as §1

GW-2580 + Navitoclax = compound: COC1=CC=C(C=C1)COC2=C(C=C(C=C2)CC3=CN=C(N=C3N)N)OC [GW-2580] + CC1(C)CCC(c2ccc(Cl)cc2)=C(CN2CCN(c3ccc(C(=O)NS(=O)(=O)c4ccc(N[C@H](CCN5CCOCC5)CSc5ccccc5)c(S(=O)(=O)C(F)(F)F)c4)cc3)CC2)C1 [Navitoclax] (partner 0.5 µM)
Procedure, shortened: as §1

Fedratinib + Navitoclax = compound: Cc1cnc(Nc2ccc(OCCN3CCCC3)cc2)nc1Nc1cccc(S(=O)(=O)NC(C)(C)C)c1 [Fedratinib] + CC1(C)CCC(c2ccc(Cl)cc2)=C(CN2CCN(c3ccc(C(=O)NS(=O)(=O)c4ccc(N[C@H](CCN5CCOCC5)CSc5ccccc5)c(S(=O)(=O)C(F)(F)F)c4)cc3)CC2)C1 [Navitoclax] (partner 0.5 µM)
Procedure, shortened: as §1

UMC-11
relative viability (Fedratinib + Tozasertib; first compound 0.1 µM): 0.229
relative viability (Fedratinib + Tozasertib; first compound 0.3162 µM): 0.228
relative viability (Fedratinib + Tozasertib; first compound 1 µM): 0.193
relative viability (Fedratinib + Linsitinib; first compound 0.1 µM): 0.995
relative viability (Fedratinib + Linsitinib; first compound 0.3162 µM): 0.864
relative viability (Fedratinib + Linsitinib; first compound 1 µM): 0.848
relative viability (Fedratinib + Decitabine; first compound 0.1 µM): 0.61
relative viability (Fedratinib + Decitabine; first compound 0.3162 µM): 0.603
relative viability (Fedratinib + Decitabine; first compound 1 µM): 0.551
relative viability (Fedratinib + Palbociclib; first compound 0.1 µM): 0.345
relative viability (Fedratinib + Palbociclib; first compound 0.3162 µM): 0.311
relative viability (Fedratinib + Palbociclib; first compound 1 µM): 0.301
relative viability (GW-2580 + Navitoclax; first compound 0.08 µM): 0.309
relative viability (GW-2580 + Navitoclax; first compound 0.8 µM): 0.342
relative viability (GW-2580 + Navitoclax; first compound 2.53 µM): 0.291
relative viability (GW-2580 + Navitoclax; first compound 8 µM): 0.324
relative viability (Fedratinib + Navitoclax; first compound 0.1 µM): 0.31
relative viability (Fedratinib + Navitoclax; first compound 0.3162 µM): 0.275
relative viability (Fedratinib + Navitoclax; first compound 1 µM): 0.228
